Source: PubChem BioAssay AID2060600 (Molecular Pharmacology Branch, DTP, NCI, 2025)

Tested on: 996289-038-R-J1-PDC complex spheroid viability
Assay: Anticancer human tumor 996289-038-R-J1-PDC patient-derived colon adenocarcinoma cell line growth inhibition [CLK]
Details: for IC50: curve of first compound; for viability, T/C: stronger effect = lower value
How it was run: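 Multi-cell-type spheroids combined patient-derived tumor cells with HUVEC endothelial cells and human mesenchymal stem cells. Paired agents were dosed in half-log steps down from about clinical Cmax, or from 10 microM where Cmax was unknown.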

[1] = second compound 0.0316 µM, first compound 0.0316 µM
[2] = second compound 0.0316 µM, first compound 0.1 µM
[3] = second compound 0.0316 µM, first compound 0.316 µM
[4] = second compound 0.0316 µM, first compound 1 µM
[5] = second compound 0.0316 µM, first compound 3.16 µM
[6] = second compound 0.0316 µM, first compound 10 µM
[7] = second compound 0.1 µM, first compound 0.0316 µM
[8] = second compound 0.1 µM, first compound 0.1 µM
[9] = second compound 0.1 µM, first compound 0.316 µM
[10] = second compound 0.1 µM, first compound 1 µM
[11] = second compound 0.1 µM, first compound 3.16 µM
[12] = second compound 0.1 µM, first compound 10 µM
[13] = second compound 0.316 µM, first compound 0.0316 µM
[14] = second compound 0.316 µM, first compound 0.1 µM
[15] = second compound 0.316 µM, first compound 0.316 µM
[16] = second compound 0.316 µM, first compound 1 µM
[17] = second compound 0.316 µM, first compound 3.16 µM
[18] = second compound 0.316 µM, first compound 10 µM
[19] = second compound 1 µM, first compound 0.0316 µM
[20] = second compound 1 µM, first compound 0.1 µM
[21] = second compound 1 µM, first compound 0.316 µM
[22] = second compound 1 µM, first compound 1 µM
[23] = second compound 1 µM, first compound 3.16 µM
[24] = second compound 1 µM, first compound 10 µM
[25] = second compound 3.16 µM, first compound 0.0316 µM
[26] = second compound 3.16 µM, first compound 0.1 µM
[27] = second compound 3.16 µM, first compound 0.316 µM
[28] = second compound 3.16 µM, first compound 1 µM
[29] = second compound 3.16 µM, first compound 3.16 µM
[30] = second compound 3.16 µM, first compound 10 µM
[31] = second compound 10 µM, first compound 0.0316 µM
[32] = second compound 10 µM, first compound 0.1 µM
[33] = second compound 10 µM, first compound 0.316 µM
[34] = second compound 10 µM, first compound 1 µM
[35] = second compound 10 µM, first compound 3.16 µM
[36] = second compound 10 µM, first compound 10 µM
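Also: spheroids exposed to the agents for 7 days before readout.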

COc1ccc([C@@H](O)c2cc(-c3ncnc4cc(N5CCOCC5)ccc34)c(F)cc2Cl)nn1 + CNC(=O)c1ccc(Nc2nc(OC3CCCC3)c3c(-c4ccc5nc(C)oc5c4)c[nH]c3n2)c(OC)c1
IC50 (second compound 0.0316 µM): > 10000 nM
IC50 (second compound 0.1 µM): > 10000 nM
IC50 (second compound 0.316 µM): 5720 nM
IC50 (second compound 1 µM): 2470 nM
IC50 (second compound 3.16 µM): 1410 nM
IC50 (second compound 10 µM): 1130 nM
viability, T/C [1]: 117%
viability, T/C [2]: 117%
viability, T/C [3]: 101%
viability, T/C [4]: 102%
viability, T/C [5]: 75.4%
viability, T/C [6]: 54.7%
viability, T/C [7]: 121%
viability, T/C [8]: 112%
viability, T/C [9]: 99.1%
viability, T/C [10]: 101%
viability, T/C [11]: 86.8%
viability, T/C [12]: 52.7%
viability, T/C [13]: 82.3%
viability, T/C [14]: 73.9%
viability, T/C [15]: 68.9%
viability, T/C [16]: 62.5%
viability, T/C [17]: 66%
viability, T/C [18]: 39.3%
viability, T/C [19]: 67.8%
viability, T/C [20]: 58.5%
viability, T/C [21]: 58.4%
viability, T/C [22]: 55.7%
viability, T/C [23]: 50.6%
viability, T/C [24]: 26.9%
viability, T/C [25]: 56.2%
viability, T/C [26]: 59.4%
viability, T/C [27]: 51.9%
viability, T/C [28]: 52%
viability, T/C [29]: 45.7%
viability, T/C [30]: 25.9%
viability, T/C [31]: 56%
viability, T/C [32]: 57%
viability, T/C [33]: 52.3%
viability, T/C [34]: 50.2%
viability, T/C [35]: 44.1%
viability, T/C [36]: 27.2%

COc1cccc2c1C(=O)c1c(O)c3c(c(O)c1C2=O)CC(O)(C(=O)CO)CC3OC1CC(N)C(O)C(C)O1 (centres undefined) + CNC(=O)c1ccc(Nc2nc(OC3CCCC3)c3c(-c4ccc5nc(C)oc5c4)c[nH]c3n2)c(OC)c1
IC50 (second compound 0.0316 µM): 4460 nM
IC50 (second compound 0.1 µM): 2150 nM
IC50 (second compound 0.316 µM): 983 nM
IC50 (second compound 1 µM): 173 nM
IC50 (second compound 3.16 µM): < 31.6 nM
IC50 (second compound 10 µM): 66.9 nM
viability, T/C [1]: 119%
viability, T/C [2]: 98.7%
viability, T/C [3]: 87.5%
viability, T/C [4]: 68.8%
viability, T/C [5]: 59.9%
viability, T/C [6]: 36%
viability, T/C [7]: 104%
viability, T/C [8]: 110%
viability, T/C [9]: 79.7%
viability, T/C [10]: 59.9%
viability, T/C [11]: 50%
viability, T/C [12]: 28.7%
viability, T/C [13]: 75.3%
viability, T/C [14]: 73.4%
viability, T/C [15]: 63.1%
viability, T/C [16]: 51%
viability, T/C [17]: 31%
viability, T/C [18]: 18.5%
viability, T/C [19]: 64.8%
viability, T/C [20]: 56.6%
viability, T/C [21]: 42.2%
viability, T/C [22]: 28.1%
viability, T/C [23]: 14.3%
viability, T/C [24]: 10.3%
viability, T/C [25]: 49.3%
viability, T/C [26]: 48.2%
viability, T/C [27]: 38.5%
viability, T/C [28]: 19.5%
viability, T/C [29]: 10.3%
viability, T/C [30]: 7.76%
viability, T/C [31]: 53.1%
viability, T/C [32]: 47.6%
viability, T/C [33]: 36.6%
viability, T/C [34]: 18.1%
viability, T/C [35]: 8.69%
viability, T/C [36]: 7.86%
